Reference: paper PMC8899820, “Pharmacokinetics, Tissue Distribution, and Excretion Characteristics of a Radix Polygoni Multiflori Extract in Rats” (Frontiers in Pharmacology, 2022)
Read-outs that look alike come from different tables or passages of the source.

Key:
[1] = rat, in vivo, po
Excerpt: (§1) For the pharmacokinetic (PK) study, three groups (n = 6 each) of rats were orally administered RPM extract (6, 18, and 36 g/kg). In the plasma pharmacokinetics experiment, doses were 6, 18, and 36 g/kg for the single administration group and 18 g/kg for the continuous administration group. The doses were set at a subtoxic level ([Zhang et al., 2013]; [Wang et al., 2015]) to investigate the pharmacokinetic profiles of the constituents of RPM (36 g/kg group) and were approximately 60 times the upper dose (6 g/day) for humans recommended by the 2020 edition of Chinese Pharmacopoeia ([Chinese Pharmacopoeia Commission, 2020]), which was converted to a dose for rats based on body surface area conversion ([Reagan-Shaw et al., 2008]). In addition, the low and medium doses decreased in a certain proportion. Serial blood samples (∼120 μL; before dosing and at 5, 15, and 30 min, and 1, 2, 4, 6, 8, 12, and 24 h after administration) were collected in heparinized tubes from the orbital sinus under light isoflurane. The blood samples were centrifuged at 12000 g for 2 min, and the plasma fractions were decanted and frozen at −70°C until analysis.
(§2) Samples were prepared using the protein precipitation process. Rat plasma (50 μL) spiked with 10 μL of IS (puerarin 100 ng/ml) was extracted with 150 μL acetonitrile. After vortex shaking for 5 min and centrifugation at 14,000 g for 5 min, 150 μL of the organic layer was transferred to a clean tube and evaporated to dryness at 25°C under a stream of nitrogen. The residue was reconstituted in 50 μL of the initial mobile phase and subjected to another round of centrifugation at 14,000 g for 5 min, and 5 μL of the supernatant was injected for LC–MS/MS analysis.
(§3) The analysis was performed on an AB Sciex API 5500 Q Trap mass spectrometer (Toronto, Canada), interfaced with a Waters Acquity UPLC separation module.
(§4) The pharmacokinetic parameters, including the area under the plasma concentration-time curve from time zero to time t (AUC0-t) to time infinity (AUC0-∞), the time to reach the maximum plasma concentration (T max), the elimination half-time (t 1/2), and the maximum plasma concentration (C max), were calculated using the pharmacokinetic software Phoenix® WinNonlin®, version 7.0 (Scientific Consulting Inc., Apex, NC, United States). Data are expressed as the mean ± standard deviation (SD) for each group. The dose-exposure relationship was evaluated by the power function model combined with the confidence interval method ([Smith et al., 2000]; [Sethuraman et al., 2007]; [Hummel et al., 2009]). First, the administration dose, AUC0-∞ and C max were logarithmically transformed, and then a linear regression was performed to obtain the curve correlation coefficient (R^2), slope and 90% confidence interval (90% CI).

[2] = rat, in vivo
[3] = in vivo; conditions: Sprague-Dawley, rat, po
Excerpt: as §1, §2, §3, §4

[4] = in vivo; conditions: Sprague-Dawley, rat, po, 18 g/kg
Description: For the tissue distribution study, 18 rats were randomly divided into three groups (n = 6, each) and orally administered 18 g/kg RPM extract. The rats under isoflurane anesthesia were sacrificed by bleeding from the abdominal aorta at 5, 15, and 60 min (six rats per time point) after gavage with 18 g/kg RPM extract. Subsequently, the heart, liver, spleen, lung, kidney, brain, stomach, small intestine, bladder, and gonads (testes of male rats, and uterus and ovaries of female rats) were immediately collected. An accurately weighed amount of fresh tissue sample (0.25 g) was individually homogenized with normal saline (1 ml) and transferred (50 μL) as a tissue homogenate to 1.5 ml centrifuge tubes for use as the tissue samples. All tissue samples were stored at −70°C until analysis.
Samples were prepared using the protein precipitation process. […] The tissue samples were homogenized in four parts of ice-cold 0.9% saline solution and then centrifuged at 4°C and 12,000 × g for 10 min to obtain tissue homogenates. […] Tissue homogenate, urine, bile and fecal samples were subjected to a similar process as the rat plasma samples.
For the tissue distribution study, 18 rats were randomly divided into three groups (n=6, each), and orally administered with 18 g/kg RPM extract. The rats were sacrificed at 5, 15, 60 min after orally administering RPM. Subsequently, the heart, liver, spleen, lung, kidney, brain, stomach, small intestine, bladder, gonad (testes of male rats, uterus and ovaries of female rats) were immediately collected. An accurately weighed amount of fresh tissue sample (0.25 g) was individually homogenized with normal saline (1 mL) and transferred (50 μL) as a tissue homogenate to 1.5 mL centrifuge tubes for use as the tissue samples.

[5] = rat, in vivo, po, 36 g/kg; cited from earlier work

In the case of O=C1c2cc(O)cc(O)c2C(=O)c2c(O)cc(CO)cc21 [Citreorosein], the “time at which C max was exhibited” value [1] is reported as ≤ 20 min, the “Conclusion (dose-exposure relationship)” value [2] is reported as “Uncertainty of linear relationship” and the AUC(0-inf) ([3]; 6 g/kg) is reported as 0.0961 ± 0.0171 µM·h. The AUC(0-t) ([3]; 6 g/kg) was 0.0872 ± 0.0215 µM·h, the Cmax ([3]; 6 g/kg) was 41.2 ± 8.8 nM and the MRT inf ([3]; 6 g/kg) was 6.87 ± 1.42 h. For the same compound, the Tmax ([3]; 6 g/kg) was 0.25 h, the half-life ([3]; 6 g/kg) was 5.07 ± 1.32 h and the AUC(0-inf) ([3]; 18 g/kg) was 0.558 ± 0.499 µM·h. For the same compound, the AUC(0-t) ([3]; 18 g/kg) was 0.416 ± 0.251 µM·h, the Cmax ([3]; 18 g/kg) was 349 ± 216 nM and the MRT inf ([3]; 18 g/kg) was 5.69 ± 1.57 h. The half-life ([3]; 18 g/kg) was 3.78 ± 0.75 h, the AUC(0-t) ([4]; both, AUC0-t in bladder) was 0.0604 µM·h and the AUC(0-t) ([4]; both, AUC0-t in brain) was 0.00583 µM·h. For the same compound, the AUC(0-t) ([4]; both, AUC0-t in heart) was 0.65 µM·h, the AUC(0-t) ([4]; both, AUC0-t in intestine) was 0.211 µM·h and the AUC(0-t) ([4]; both, AUC0-t in kidney) was 0.587 µM·h. The AUC(0-t) ([4]; both, AUC0-t in liver) was 1.6 µM·h, the AUC(0-t) ([4]; both, AUC0-t in lung) was 0.58 µM·h and the AUC(0-t) ([4]; both, AUC0-t in spleen) was 0.873 µM·h. It also gave an AUC(0-t) ([4]; both, AUC0-t in stomach) of 0.783 µM·h, an AUC(0-t) ([4]; female, AUC0-t in ovary) of 0.227 µM·h and an AUC(0-t) ([4]; female, AUC0-t in uterus) of 0.104 µM·h. The AUC(0-t) ([4]; male, AUC0-t in testis) was 0.0137 µM·h, the “AUC0-∞” value [5] was 0.468 ± 0.337 µM·h and the AUC(0-t) [5] was 0.458 ± 0.338 µM·h. For the same compound, the Cmax [5] was 521 ± 512 nM.
